Source: patent publication US11911396B2, “Use of compound in preparation of drug for treating cerebral small vessel disease” (GUANGZHOU CELLPROTEK PHARMACEUTICAL CO., LTD, priority 2017, dated 2024)

Experiments:
Iba-1 in microglia BV2 = assay: Western blot of Iba-1 in BV2 cells stimulated with hemoglobin and hypoxia, with or without CD163 RNA interference; format: cell-based; settings: 10 μM Triol, 20 μM hemoglobin and 1% hypoxia for 6 hours
Description: (§1) FIG. 7. […] According to the manufacturer's instructions, RNAiMAX was used to transfect CD163 No. 01 and scrambled interference fragment NC respectively to BV2 cells, BV2 cell culture medium was then added with or without 10 μM Triol, and BV2 cells were stimulated with 20 μM hemoglobin and 1% hypoxia for 6 hours, after which protein samples were collected, and the expression of microglial activation markers Iba-1 and CD11b was detected by Western blot.
(§2) 1) Preparation of protein samples (see the instructions of M-PER protein lysate): After the cells had been processed for the specified time, the medium was aspirated and then washed with 4° C. pre-chilled PBS (0.01M pH7.2˜7.3) for 3 times. 150-200 ul of M-PER protein lysate mixed with protease inhibitor (PMSF 100×) was added, which was lysed on ice for 10 minutes to fully lyse the cells. […] 2) BCA protein quantification (see the instructions of BCA protein quantification kit): corresponding components were added to a 96-well detection plate by the ratio of quantification reagent A solution:B solution:ddH2O:protein=100:2:7.5:5, and albumin standards diluted in gradient concentration were added to draw a standard curve. […] After the reaction, the absorbance of each well at a wavelength of 562 nm was detected using a microplate reader. […]

CD11b in microglia BV2 = assay: Western blot of CD11b in BV2 cells stimulated with hemoglobin and hypoxia, with or without CD163 RNA interference; format: cell-based; settings: 10 μM Triol, 20 μM hemoglobin and 1% hypoxia for 6 hours
Description: as §1, §2

C[C@@]12CCCC1C1C[C@@H](O)[C@@]3(O)C[C@@H](O)CC[C@]3(C)C1CC2 (stereo partly drawn) [Triol, 5α-androst-3β,5,6β-triol]
effect on the up-regulation of Iba-1 in hypoxia and hemoglobin-activated microglia cells (Iba-1 in microglia BV2; without CD163 interference): inhibitory effect
inhibitory effect on the up-regulation of Iba-1 after interfering CD163 (Iba-1 in microglia BV2; CD163 RNA interference, FIG. 7): cancelled
effect on the up-regulation of CD11b in hypoxia and hemoglobin-activated microglia cells (CD11b in microglia BV2; without CD163 interference): inhibitory effect
inhibitory effect on the up-regulation of CD11b after interfering CD163 (CD11b in microglia BV2; CD163 RNA interference, FIG. 7): cancelled
